Assay results published in US12303511B2 (priority 2018, dated 2025).

Assays:
Gpr139−/− mice [1] = experiment: Conditioned place preference paradigm; format: in vivo; conditions: Gpr139−/− mice vs wild-type
[2] = tested on: transgenic C. elegans (tgMOR) that express mammalian MOR; conditions: in vivo
Gpr139−/− mice [3] = conditions: Gpr139−/− mice vs wild-type, multiple drug doses

## CN1CC[C@]23c4c5ccc(O)c4O[C@H]2[C@@H](O)C=C[C@H]3[C@H]1C5 [morphine]
Gpr139−/− mice [1]
  rewarding effects: substantially augmented responses
[2]
  time to maximum paralysis and recovery: reached maximum paralysis and recovered more quickly
Gpr139−/− mice [3]
  analgesia, maximal response and duration of effect: significantly increased morphine analgesia
